The target in assay [1] is T1, recombinant PI3Kγ/p110γ (phosphatidylinositol-3-kinase gamma) (Homo sapiens, UniProt P48736).
T1 construct: gene PIK3CG; no regulatory subunit mentioned
In words: [γ-32P]-ATP phosphatidylinositol kinase assay, TLC. The assay is classed as biochemical. The conditions noted are these: stimulator; no hTAP1; phosphatidylinositol 100 µM, ATP 20 µM, 4 mM MgCl2, pH 7.4, 37 °C.

For assay [2], the target named is T2, recombinant hTAP1 (human tocopherol associated protein 1, hSEC14L2) (Homo sapiens, UniProt O76054). Briefly: isoelectric point mobility shift competition with phosphatidylinositol. It counts as binding. Further details: gene SEC14L2; N-terminal His tag, expressed in and purified from Escherichia coli. Particulars: read-out: 50% displacement of PI.
T2 sequence (O76054 whole entry): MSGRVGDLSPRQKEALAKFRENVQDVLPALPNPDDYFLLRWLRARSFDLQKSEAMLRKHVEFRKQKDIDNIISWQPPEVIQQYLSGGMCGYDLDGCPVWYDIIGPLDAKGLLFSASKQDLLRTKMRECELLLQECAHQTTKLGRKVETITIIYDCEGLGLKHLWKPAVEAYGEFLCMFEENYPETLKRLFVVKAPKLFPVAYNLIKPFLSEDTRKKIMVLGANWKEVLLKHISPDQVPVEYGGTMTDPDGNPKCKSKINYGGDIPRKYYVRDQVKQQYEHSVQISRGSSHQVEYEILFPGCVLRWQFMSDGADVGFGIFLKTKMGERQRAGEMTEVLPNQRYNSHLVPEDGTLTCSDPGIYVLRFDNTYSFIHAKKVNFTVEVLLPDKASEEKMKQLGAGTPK
In assay [3] the target is T2, recombinant hTAP1 (human tocopherol associated protein 1, hSEC14L2). Further details: gene SEC14L2. Particulars: competitor of phosphatidylinositol; native isoelectric focusing gel.
The target in assay [4] is recombinant phosphatidylinositol-3-kinase gamma PI3Kγ/p110γ (UniProt P48736).
Chain of recombinant phosphatidylinositol-3-kinase gamma PI3Kγ/p110γ (P48736 whole entry): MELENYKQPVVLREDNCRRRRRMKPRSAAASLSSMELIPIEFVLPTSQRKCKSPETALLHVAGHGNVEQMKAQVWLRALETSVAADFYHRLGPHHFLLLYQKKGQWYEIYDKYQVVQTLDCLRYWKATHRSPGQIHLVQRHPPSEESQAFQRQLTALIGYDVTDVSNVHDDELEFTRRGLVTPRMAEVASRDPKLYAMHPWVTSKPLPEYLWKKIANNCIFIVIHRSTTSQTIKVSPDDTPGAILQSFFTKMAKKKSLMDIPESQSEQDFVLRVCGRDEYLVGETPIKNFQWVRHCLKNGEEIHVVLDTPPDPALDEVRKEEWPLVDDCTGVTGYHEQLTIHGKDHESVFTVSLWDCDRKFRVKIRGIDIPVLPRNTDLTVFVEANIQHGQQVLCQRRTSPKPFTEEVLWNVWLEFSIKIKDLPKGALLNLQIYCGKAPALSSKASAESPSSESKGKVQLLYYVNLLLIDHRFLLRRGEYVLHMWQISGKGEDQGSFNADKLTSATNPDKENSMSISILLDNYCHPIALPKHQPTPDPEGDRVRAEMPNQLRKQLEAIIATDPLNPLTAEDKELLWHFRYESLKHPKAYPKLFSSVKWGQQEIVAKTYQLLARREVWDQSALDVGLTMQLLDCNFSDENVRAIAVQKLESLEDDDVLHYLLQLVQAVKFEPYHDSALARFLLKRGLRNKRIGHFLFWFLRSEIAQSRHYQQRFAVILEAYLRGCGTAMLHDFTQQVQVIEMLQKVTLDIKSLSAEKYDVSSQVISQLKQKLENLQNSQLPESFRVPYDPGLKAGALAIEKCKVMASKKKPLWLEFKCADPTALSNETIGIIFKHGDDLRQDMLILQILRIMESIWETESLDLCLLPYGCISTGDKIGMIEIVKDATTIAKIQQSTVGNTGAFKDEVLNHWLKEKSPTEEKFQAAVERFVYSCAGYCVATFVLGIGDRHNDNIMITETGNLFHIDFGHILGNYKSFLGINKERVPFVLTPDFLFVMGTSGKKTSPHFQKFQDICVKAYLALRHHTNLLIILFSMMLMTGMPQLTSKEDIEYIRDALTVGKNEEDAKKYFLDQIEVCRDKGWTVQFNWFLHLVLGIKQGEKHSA

T1 sequence (P48736 whole entry): as above
Chain of recombinant human tocopherol associated protein 1 (O76054 whole entry): as the sequence (O76054 whole entry) above

Take `Cc1c(C)c2c(c(C)c1O)CC[C@@](C)(CCC[C@H](C)CCC[C@H](C)CCCC(C)C)O2` [RRR-α-tocopherol]: in assay [1], the “% of control activity at 50 μM” value is reported as “All four tocopherols stimulated PI3Kγ activity with similar efficiency (Figure 4A)”. In assay [2], the IC50 amounted to 50 µM.
On to `Cc1cc(O)c(C)c2c1O[C@](C)(CCC[C@H](C)CCC[C@H](C)CCCC(C)C)CC2` [RRR-β-tocopherol], for which the “% of control activity at 50 μM” value in assay [1] is on record as “All four tocopherols stimulated PI3Kγ activity with similar efficiency (Figure 4A)”.
The same measure, in the same setting: the value for `Cc1c(O)cc2c(c1C)O[C@](C)(CCC[C@H](C)CCC[C@H](C)CCCC(C)C)CC2` [RRR-γ-tocopherol] was “All four tocopherols stimulated PI3Kγ activity with similar efficiency (Figure 4A)”; that for `Cc1cc(O)cc2c1O[C@](C)(CCC[C@H](C)CCC[C@H](C)CCCC(C)C)CC2` [RRR-δ-tocopherol] was “All four tocopherols stimulated PI3Kγ activity with similar efficiency (Figure 4A)”.
Regarding `Cc1c(C)c2c(c(C)c1OP(=O)(O)O)CC[C@@](C)(CCC[C@H](C)CCC[C@H](C)CCCC(C)C)O2` [α-tocopheryl phosphate], in assay [1], the “% of control activity at 50 μM” value was “αTP stimulated PI3Kγ stronger than αT (Figure 4B)”. In addition, the “isoelectric point mobility shift competition with phosphatidylinositol” value in assay [3] was “the competition with αTP was slightly weaker (Figure 3B)”.
Turning to “recombinant human tocopherol associated protein 1 (from UniProt O76054 1-403) (natural protein)”, the in vitro PI3Kγ activity (phosphorylation of phosphatidylinositol with [γ-32P]-ATP, TLC) in the presence of recombinant hTAP1, relative to the control without hTAP1 in assay [4] stood at 38%.

For the origin of these results see article PMC4077815, “Modulation of Phosphorylation of Tocopherol and Phosphatidylinositol by hTAP1/SEC14L2-Mediated Lipid Exchange” (PLoS ONE, 2014).
